Assay results as given in ChEMBL document CHEMBL3885881, “DrugMatrix”.

Species: Rattus norvegicus
Assay: DrugMatrix - Regimen: Daily Repeat
Format: toxicity, organism-based, Sprague-Dawley
Set-up: regimen Daily Repeat, gender Male, age 6-8 weeks
Conditions: in vivo, po, route oral GAVAGE, vehicle 100 % WATER; for ABSOLUTE BASOPHIL / ABSOLUTE EOSINOPHIL / ABSOLUTE LYMPHOCYTE / ABSOLUTE MONOCYTE / ABSOLUTE SEGMENTED NEUTROPHIL / BASOPHIL / EOSINOPHIL / ERYTHROCYTE COUNT / HEMATOCRIT / HEMOGLOBIN / LEUKOCYTE COUNT / LYMPHOCYTE / MEAN CORPUSCULAR HEMOGLOBIN / MEAN CORPUSCULAR HEMOGLOBIN CONCENTRATION / NEUTROPHIL / NUCLEATED RED BLOOD CELLS / PLATELET COUNT: tissue Blood; for ALANINE AMINOTRANSFERASE / ALBUMIN / ALKALINE PHOSPHATASE / ASPARTATE AMINOTRANSFERASE / BLOOD UREA NITROGEN / CARBON DIOXIDE / CHLORIDE / CHOLESTEROL / CREATINE PHOSPHOKINASE / CREATININE / GLUCOSE / LACTATE DEHYDROGENASE / LIPASE / PHOSPHORUS / POTASSIUM / SODIUM / TOTAL BILIRUBIN / TOTAL PROTEIN / URIC ACID: tissue Plasma
[1] = 94 mg/kg, 120 h, dose level High, time 5 day
[2] = […], 72 h, dose 2.3 mg/Kg, dose level Low, time 3 day
[3] = […], 120 h, dose 2.3 mg/Kg, dose level Low, time 5 day

CN1[C@@H]2CC[C@H]1C[C@@H](OC(=O)C(CO)c1ccccc1)C2 (stereo partly drawn) [ATROPINE]
ABSOLUTE BASOPHIL [1]: 0 CELLS/uL
ABSOLUTE EOSINOPHIL [1]: 26.33 CELLS/uL
ABSOLUTE LYMPHOCYTE [1]: 8136 CELLS/uL
ABSOLUTE MONOCYTE [1]: 82.33 CELLS/uL
ABSOLUTE SEGMENTED NEUTROPHIL [1]: 555.33 CELLS/uL
BASOPHIL [1]: 0%
EOSINOPHIL [1]: 0.33%
ERYTHROCYTE COUNT [1]: 5.33 x10E6/uL
HEMATOCRIT [1]: 35.2%
HEMOGLOBIN [1]: 13.4 G/DL
LEUKOCYTE COUNT [1]: 8.8 x10E3/uL
LYMPHOCYTE [1]: 92.33%
MEAN CORPUSCULAR HEMOGLOBIN [1]: 25.13 pg
MEAN CORPUSCULAR HEMOGLOBIN CONCENTRATION [1]: 38.07 G/DL
NEUTROPHIL [1]: 6.33%
NUCLEATED RED BLOOD CELLS [1]: 0.33 /100WBC
PLATELET COUNT [1]: 1133.67 x10E3/uL
ALANINE AMINOTRANSFERASE [1]: 73.67 u/L
ALBUMIN [1]: 4.13 G/DL
ALKALINE PHOSPHATASE [1]: 335 u/L
ASPARTATE AMINOTRANSFERASE [1]: 106.67 u/L
BLOOD UREA NITROGEN [1]: 13 mg/dL
CARBON DIOXIDE [1]: 32 mmol/L
CHLORIDE [1]: 99.67 MEQ/L
CHOLESTEROL [1]: 52.33 mg/dL
CREATINE PHOSPHOKINASE [1]: 367.67 u/L
CREATININE [1]: 0.1 mg/dL
GLUCOSE [1]: 155 mg/dL
LACTATE DEHYDROGENASE [1]: 214.33 u/L
LIPASE [1]: 11 u/L
PHOSPHORUS [1]: 9.67 mg/dL
POTASSIUM [1]: 5.56 MEQ/L
SODIUM [1]: 143.2 MEQ/L
TOTAL BILIRUBIN [1]: 0.17 mg/dL
TOTAL PROTEIN [1]: 6.03 G/DL
URIC ACID [1]: 0.37 mg/dL
ABSOLUTE BASOPHIL [2]: 0 CELLS/uL
ABSOLUTE EOSINOPHIL [2]: 0 CELLS/uL
ABSOLUTE LYMPHOCYTE [2]: 12169.33 CELLS/uL
ABSOLUTE MONOCYTE [2]: 203.67 CELLS/uL
ABSOLUTE SEGMENTED NEUTROPHIL [2]: 1660.33 CELLS/uL
BASOPHIL [2]: 0%
EOSINOPHIL [2]: 0%
ERYTHROCYTE COUNT [2]: 5.43 x10E6/uL
HEMATOCRIT [2]: 34.63%
HEMOGLOBIN [2]: 13.57 G/DL
LEUKOCYTE COUNT [2]: 14.03 x10E3/uL
LYMPHOCYTE [2]: 88%
MEAN CORPUSCULAR HEMOGLOBIN [2]: 25 pg
MEAN CORPUSCULAR HEMOGLOBIN CONCENTRATION [2]: 39.17 G/DL
NEUTROPHIL [2]: 10.67%
NUCLEATED RED BLOOD CELLS [2]: 0 /100WBC
PLATELET COUNT [2]: 1077.33 x10E3/uL
ALANINE AMINOTRANSFERASE [2]: 49 u/L
ALBUMIN [2]: 3.93 G/DL
ALKALINE PHOSPHATASE [2]: 305.33 u/L
ASPARTATE AMINOTRANSFERASE [2]: 82.67 u/L
BLOOD UREA NITROGEN [2]: 10.67 mg/dL
CARBON DIOXIDE [2]: 28.67 mmol/L
CHLORIDE [2]: 99.33 MEQ/L
CHOLESTEROL [2]: 68.67 mg/dL
CREATINE PHOSPHOKINASE [2]: 256.67 u/L
CREATININE [2]: 0.1 mg/dL
GLUCOSE [2]: 142.67 mg/dL
LACTATE DEHYDROGENASE [2]: 161 u/L
LIPASE [2]: 9.33 u/L
PHOSPHORUS [2]: 10.27 mg/dL
POTASSIUM [2]: 6.48 MEQ/L
SODIUM [2]: 141.6 MEQ/L
TOTAL BILIRUBIN [2]: 0.27 mg/dL
TOTAL PROTEIN [2]: 5.63 G/DL
URIC ACID [2]: 0.97 mg/dL
ABSOLUTE BASOPHIL [3]: 0 CELLS/uL
ABSOLUTE EOSINOPHIL [3]: 0 CELLS/uL
ABSOLUTE LYMPHOCYTE [3]: 8930.67 CELLS/uL
ABSOLUTE MONOCYTE [3]: 135.33 CELLS/uL
ABSOLUTE SEGMENTED NEUTROPHIL [3]: 600.67 CELLS/uL
BASOPHIL [3]: 0%
EOSINOPHIL [3]: 0%
ERYTHROCYTE COUNT [3]: 5.39 x10E6/uL
HEMATOCRIT [3]: 35.13%
HEMOGLOBIN [3]: 13.5 G/DL
LEUKOCYTE COUNT [3]: 9.67 x10E3/uL
LYMPHOCYTE [3]: 93%
MEAN CORPUSCULAR HEMOGLOBIN [3]: 25.07 pg
MEAN CORPUSCULAR HEMOGLOBIN CONCENTRATION [3]: 38.43 G/DL
NEUTROPHIL [3]: 6%
NUCLEATED RED BLOOD CELLS [3]: 0 /100WBC
PLATELET COUNT [3]: 1298.67 x10E3/uL
ALANINE AMINOTRANSFERASE [3]: 55.33 u/L
ALBUMIN [3]: 4.07 G/DL
ALKALINE PHOSPHATASE [3]: 274 u/L
ASPARTATE AMINOTRANSFERASE [3]: 83 u/L
BLOOD UREA NITROGEN [3]: 13.67 mg/dL
CARBON DIOXIDE [3]: 34.67 mmol/L
CHLORIDE [3]: 98.33 MEQ/L
CHOLESTEROL [3]: 64.67 mg/dL
CREATINE PHOSPHOKINASE [3]: 318.67 u/L
CREATININE [3]: 0.12 mg/dL
GLUCOSE [3]: 137.67 mg/dL
LACTATE DEHYDROGENASE [3]: 169.67 u/L
LIPASE [3]: 12.33 u/L
PHOSPHORUS [3]: 10 mg/dL
POTASSIUM [3]: 5.77 MEQ/L
SODIUM [3]: 144.13 MEQ/L
TOTAL BILIRUBIN [3]: 0.2 mg/dL
TOTAL PROTEIN [3]: 6.23 G/DL
URIC ACID [3]: 0.37 mg/dL
